{"source": "patent US20030003071A1", "about": "“Hair growth stimulant” (priority 2000, published 2003)", "key": {"[1]": {"tested_on": "immortalized outer hair root sheath cells", "assay": "Immortalized outer hair root sheath cell proliferation test (cellular DNA, Hoechst 33258)", "assay_type": "cell-based, human", "conditions": "10 nM, 1 μM, 100 μM or 10 mM in KBM; 4 days culture; negative control = 100", "protocol": "<Immortalized Outer Hair Root Sheath Cell Proliferation Tests>\n[Culturing of Immortalized Outer Hair Root Sheath Cells]\nHair follicles were isolated from human scalp skin using scissors under a stereoscopic microscope. The hair follicles were cut off at the lower part of the sebaceous gland, and enzyme treatment was carried out with collagenase and dispase.\nThe hair bulb was cut off with scissors and excluded, and the hair shaft was separated with tweezers.\nThe hair shaft was subjected to enzyme treatment with trypsin, and then the reaction was stopped with trypsin inhibitor.\nCentrifuging was carried out, the supernatant was thrown away, and the outer hair root sheath cells were recovered. […]\nFirst generation cultured outer hair root sheath cells cultured until the cloning confluence of the cells was about 50% were washed with K-SFM, and then infection was carried out by adding the above-mentioned virus in a quantity of 1, 10 or 30 MOI (multiplicity of infection). […]\nThe cells were thawed, and were then added to each […], and smashed up with sonication. The cells were then transferred into a cuvette, and the fluorescence intensity was measured at an excitation wavelength of 356 nm and a fluorescence wavelength of 460 nm."}, "[2]": {"tested_on": "cultured rat hair follicle epithelial cells", "assay": "Cell proliferation test using cultured rat hair follicle epithelial cells (alamar blue)", "assay_type": "cell-based", "conditions": "object substance concentration 1.0×10^−5% in KBM medium, 2 days culture, negative control 0, positive control (insulin + hydrocortisone) 1", "description": "B. Rat Hair Follicle Epithelial Cells\n1. Collection of Rat Hair Follicle Epithelial Cells\n(1) Collection of Hair Follicles\nDorsal skin was collected from newborn (3˜4-day-old) rats, and this collected dorsal skin was soaked two pieces at a time in PBS (−) containing 1% PSF.\nLower parts such as subcutaneous fat and membranes were then removed from the dermal fat layer using dissecting scissors.\nNext, the dorsal skin was again soaked in PBS (−) containing 1% PSF, and was then soaked overnight at 4° C. in PBS (−) containing 0.25% trypsin (also containing 0.02% EDTA; likewise hereinafter). […]\nA cell freezing liquid (Cellbanker; made by DAIYATRON) was added to the hair follicle epithelial cells, the concentration was adjusted to 1.5×10^7 cells/ml, 1.5×10^7 cells were put into each freezing tube, and storage was carried out by freezing. The number of cells was calculated using a haemacyto meter. […]"}, "[3]": {"tested_on": "cultured human hair follicle epithelial cells", "assay": "Cell proliferation test using cultured human hair follicle epithelial cells (alamar blue)", "assay_type": "cell-based", "conditions": "object substance concentration 1.0×10^−5% in KBM medium, 2 days culture, negative control 0, positive control (insulin + hydrocortisone) 1", "protocol": "<Cell Proliferation Tests Using Cultured Hair Follicle Epithelial Cells>\nA. Human Hair Follicle Epithelial Cells\n1. Collection of Human Hair Follicle Epithelial Cells\nHair follicles in the growth period of the hair cycle were collected mechanically under a stereoscopic microscope from male human scalp skin obtained as a by-product from surgery.\nThe growth period hair follicles were treated for 30 minutes at 37° C. with Dulbecco's modified MEM (DMEM) containing 1000 U/ml dispase and 0.2% collagenase, and the dermal sheath, dermal papilla and hair bulb epithelial tissue were removed using the tip of an injection needle, and then treatment was carried out for 5 minutes at 37° C. with a phosphate buffer solution (PBS(−); ‘(−)’ means not containing calcium ions, magnesium ions etc.) containing 0.05% trypsin and 0.02% EDTA. […]\nNext, the cells were suspended in the above-mentioned serum-free medium, sowing was carried out in a collagen-coated (type I) culture dish at a density of 5000 cells/cm^2, medium exchange was carried out every 2 days until the cells became subconfluent, and then treatment was again carried out for 5 minutes at 37° C. with 0.05 wt % trypsin and 0.02% EDTA, the reaction was then stopped with an equivalent of 0.1% trypsin inhibitor, and centrifuging (800×g, 5 minutes) was carried out. […] The number of cells was calculated using a haemacyto meter. […]"}}}
{"smiles": "CNCCS(=O)(=O)O", "note": "[N-methyltaurine]", "values": [{"measurement": "Immortalized outer hair root sheath cell activation action (extent of cell proliferation, relative DNA amount, FIG. 1)", "setting": "[1]", "result": "has an immortalized outer hair root sheath cell activation action"}, {"measurement": "Cell proliferation effect (cell proliferation index)", "setting": "[2]", "result": 0.62}, {"measurement": "Cell proliferation effect (cell proliferation index)", "setting": "[3]", "result": 0.64}]}
